{"source": "patent US20250262229A1", "about": "“APPLICATION OF PHD2 INHIBITOR IN PREPARATION OF DRUGS FOR PREVENTION AND TREATMENT OF PLATELET THROMBUS” (Nankai University, priority 2024, published 2025)", "key": {"binding of collagen-VWF": {"tested_on": "binding of collagen-VWF", "experiment": "Collagen-VWF binding assay", "conditions": "1 μM IOX2-treated PHD2 protein, 10 μg/mL type I collagen; VWF antibody detection", "protocol": "(§1) The binding of platelets to collagen occurs mainly through VWF as a junction. PHD2 promotes the hydroxylation of collagen to form a three-dimensional structure to better bind to VWF. To verify the above principle, 10 μg/mL type I collagen is mixed with 1 μM IOX2-treated PHD2 protein and inoculated into a black 96-well plate, incubated at 4° C. overnight. Parallel triplicates, for the first one, SD rat platelets (2×10^7 cells/mL) are added and incubated at 37° C. for 90 minutes, after full washing with PBS, the fixed platelets are stained with Calcein-AM dye. For the second one, the primary antibody of VWF (Beijing Boaosen Biology technology Co., LTD., bs-20428R) is incubated at 4° C. overnight, after the excess primary antibody is washed away by PBS, the fluorescent secondary antibody (Abcam, ab150077) is incubated at 37° C. for 1 hour, and the excess secondary antibody is washed away. For the third one, SD rat plasma is added, incubated at room temperature for 4 hours, and then SD rat platelets (2×10^7 cells/mL) are added, incubated at 37° C. for 90 minutes, after full washing with PBS, the fixed platelets are stained with Calcein-AM dye. The fluorescence values of respective groups are measured by a multifunctional microplate reader at the excitation wavelength of 488 nm and the emission wavelength of 525 nm."}, "SD rat platelets [1]": {"tested_on": "SD rat platelets", "experiment": "Collagen-VWF-platelet adhesion assay", "assay_type": "cell-based", "conditions": "1 μM IOX2-treated PHD2 protein, 10 μg/mL type I collagen; SD rat plasma then platelets", "protocol": "as §1"}, "SD rat platelets [2]": {"tested_on": "SD rat platelets", "experiment": "Collagen-platelet adhesion assay", "assay_type": "cell-based", "conditions": "1 μM IOX2-treated PHD2 protein, 10 μg/mL type I collagen", "protocol": "as §1"}, "SD rat platelets [3]": {"tested_on": "SD rat platelets", "experiment": "Platelet adhesion to collagen on glass slides, fluorescence imaging analysis", "assay_type": "cell-based", "conditions": "IOX2 0.1 μM, 1 μM, 10 μM incubated with 100 μg/mL PHD2 protein; 10 μg/mL type I collagen", "protocol": "Different doses of PHD2 inhibitor IOX2 (0.1 μM, 1 μM, 10 μM) are taken and incubated with 100 μg/mL PHD2 protein at 4° C. for 8 hours, then 10 μg/mL type I collagen is mixed with the above solution and added dropwise to glass slides, and incubated at 4° C. overnight. SD rat platelets (2×10^7 cells/mL) are then inoculated on the glass slides and incubated at 37° C. for 90 minutes. After being fully washed by PBS, the fixed platelets are stained with Calcein-AM dye, fluorescence imaging analysis is performed using fluorescence microscope (Leica TCS SP8, Germany), and statistical analysis is performed on platelets with collagen adhesion using Image J software. The results are shown as in FIG. 5A."}, "[4]": {"tested_on": "soft tissue injury in rats", "experiment": "Blood microcirculation disorder induced by acute soft tissue injury in rats", "assay_type": "in vivo, SD rats", "conditions": "N-acetylcysteine 70 mg/kg/d i.p., ginsenoside CK 25 and 12.5 mg/kg/d i.p., vs model group; for whole blood viscosity: low, medium and high shear rate", "protocol": "SD male rats are taken and randomly divided into a blank control group, a model group, a positive control group (N-acetylcysteine, intraperitoneally injected at 70 milligrams per kilogram per day abbreviated as mg/kg/d), and high and low dose ginsenoside CK groups (intraperitoneally injected at 25 mg/kg/d and 12.5 mg/kg/d). The blank control group and the model group are given the same volume of sterile drinking water in the same manner. The molding is investigated three days after pre-administration. The rats are first anesthetized with 1% pentobarbital sodium (40 mg/kg), and the hair of the right buttocks and posterior thighs of the anesthetized rats are removed and fixed on the plate of an acute soft tissue injury modeling device. A 100 g weight is selected to impact the lateral aspect of the mid-right calf with five free-falls from a height of 100 centimeters (cm) causing soft tissue injury. The rats with successful modeling are continued to be administered for 4 days, and 1 hour after the last administration, the rats are anesthetized, blood is collected from the abdominal aorta with a blood viscometer to detect the viscosity of whole blood of the rats with high shear rate [200 s], medium shear rate [30 s], low shear rate [3 s], and low shear rate [1 s]. Coagulation parameters, such as erythrocyte aggregation index, erythrocyte packed-cell volume, platelet number and mean platelet volume, are determined by using a blood cell analyzer."}, "[5]": {"tested_on": "LPS-induced DIC model in mice", "experiment": "LPS-induced disseminated intravascular coagulation (DIC) model in mice", "assay_type": "in vivo", "conditions": "aspirin 10 mg/kg taken orally, Daprodustat 10 mg/kg intraperitoneal injection", "protocol": "The sh-PHD2 mice and sh-ctrl blank mice are randomly divided into a blank group and a model group, with 6 mice in each group. The model group is injected intraperitoneally with 10 milligrams per kilogram (mg/kg) lipopolysaccharide abbreviated as LPS (Beijing Solarbio Science & Technology Co., Ltd., Cat. No. L8880) to induce the mice to establish a disseminated intravascular coagulation (DIC) model, and the blank group is injected intraperitoneally with the corresponding volume of physiological saline. After 2 hours, the mice are anesthetized by intraperitoneal injection of 1% pentobarbital sodium (40 mg/kg), and the tail is cut at a site of 3 millimeters (mm) from the tip of the tail of each mouse, and the tail is placed vertically in 37° C. physiological saline immediately after the first drop of blood is sucked up on filter paper to record the tail bleeding time.\nIn addition to the blank group, the other groups use the method of the embodiment 1 to prepare the LPS-induced DIC model in mice, and the administration group is given drug intervention 1 hour before modeling."}, "PHD2 protein [6]": {"molecular_target": "T1, PHD2 protein (Homo sapiens, UniProt Q9GZT9)", "T1 sequence (Q9GZT9 whole entry)": "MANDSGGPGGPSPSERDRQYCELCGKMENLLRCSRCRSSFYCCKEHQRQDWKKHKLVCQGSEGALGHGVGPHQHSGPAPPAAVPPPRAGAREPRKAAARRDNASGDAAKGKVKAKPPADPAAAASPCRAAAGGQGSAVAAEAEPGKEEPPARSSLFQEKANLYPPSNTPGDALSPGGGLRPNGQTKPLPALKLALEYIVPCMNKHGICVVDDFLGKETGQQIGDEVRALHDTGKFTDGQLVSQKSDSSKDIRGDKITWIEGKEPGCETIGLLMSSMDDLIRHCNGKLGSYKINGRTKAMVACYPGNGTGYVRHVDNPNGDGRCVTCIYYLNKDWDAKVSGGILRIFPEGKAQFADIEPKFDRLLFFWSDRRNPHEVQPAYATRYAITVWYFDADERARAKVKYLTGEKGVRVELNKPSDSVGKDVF", "experiment": "PHD2 enzyme activity, 2-oxogalarate-phenylenediamine method", "assay_type": "biochemical", "design": "purchased Abcam ab132273"}, "PHD2 protein [7]": {"molecular_target": "T1, PHD2 protein", "experiment": "Surface plasmon resonance (SPR) interaction analysis with PHD2", "assay_type": "binding", "conditions": "Biacore T200, CM5 chip, 1.56 μM to 200 μM, read-out: dissociation constants KD with PHD2 protein", "protocol": "The interaction between these active natural products and recombinant human PHD2 protein is analyzed by surface plasmon resonance (SPR) technique using a Biacore™ T200 surface plasmon resonance analyzer from GE healthcare. The CM5 chip is selected, the purified PHD2 protein is immobilized on the channel of the chip, and the active natural product solution as a mobile phase is flowed through the chip, with the concentration ranging from 1.56 μM to 200 μM. The flow rate of mobile phase is 30 μL/min, and the dissociation is monitored for 150 seconds."}, "[8]": {"tested_on": "Pseudomonas aeruginosa infected mice", "experiment": "Blood coagulation function in mice infected with Pseudomonas aeruginosa", "assay_type": "in vivo, ICR (CD-1) mice", "conditions": "plasma 24 hours after infection; polydatin 10, 20, 40 mg/kg i.p.; aspirin 30 mg/kg gavage; Daprodustat 15 mg/kg i.p.; vs model group", "protocol": "ICR (CD-1) male mice are taken and randomly divided into 7 groups (6 mice in each group), which are a blank control group, a model group, an aspirin positive control group (gavage at 30 mg/kg), a Daprodustat-positive control group (intraperitoneally injected at 15 mg/kg), and low, medium and high doses of polydatin group (intraperitoneally injected at 10 mg/kg, 20 mg/kg, 40 mg/kg). Mice are anesthetized by intraperitoneal injection of 1% pentobarbital sodium (40 mg/kg). Activated Pseudomonas aeruginosa (1×10^7/20 μL) is added dropwise into the nasal cavity of mice in the model group and each administration group, and an equal amount of physiological saline is dropped into the blank control group. The respective groups are administered at 0 and 8 hours after molding, respectively. 24 hours after infection, plasma is obtained by blood sampling from mouse eyeballs, and four indexes of coagulation (prothrombin time, activated partial […] and fibrinogen) are measured by a semi-automatic coagulation analyzer."}}}
{"smiles": "O=C(O)CNC(=O)c1c(O)c2ccccc2n(Cc2ccccc2)c1=O", "note": "[IOX2, N-[[1,2-dihydro-4-hydroxy-2-oxo-1-(phenylmethyl)-3-quinolinyl]carbonyl]-glycine]", "values": [{"measurement": "binding of collagen-VWF", "setting": "binding of collagen-VWF", "result": "affecting the binding of collagen-VWF"}, {"measurement": "collagen-VWF-platelet adhesion", "setting": "SD rat platelets [1]", "result": "blocking the binding of collagen-VWF-platelet adhesion"}, {"measurement": "PHD2-mediated collagen-platelet adhesion", "setting": "SD rat platelets [2]", "result": "significantly reduces the occurrence of PHD2-mediated platelet adhesion"}, {"measurement": "platelet adhesion to collagen (fluorescence imaging)", "setting": "SD rat platelets [3]", "result": "inhibits platelet adhesion to collagen in a concentration-dependent manner"}]}
{"smiles": "CC(=O)N[C@@H](CS)C(=O)O", "note": "[N-acetylcysteine, reference compound]", "values": [{"measurement": "erythrocyte aggregation index", "setting": "[4]", "result": "significantly reduce"}, {"measurement": "erythrocyte packed-cell volume", "setting": "[4]", "result": "significantly reduce"}, {"measurement": "mean platelet volume", "setting": "[4]", "result": "improved"}, {"measurement": "platelet number", "setting": "[4]", "result": "significantly reduce"}, {"measurement": "whole blood viscosity", "setting": "[4]", "result": "improved to a certain extent"}]}
{"smiles": "CC(=O)Oc1ccccc1C(=O)O", "note": "[aspirin]", "values": [{"measurement": "pulmonary thrombi, Masson staining of lung tissues", "setting": "[5]", "result": "significantly inhibit the formation of thrombus"}, {"measurement": "tail bleeding time", "setting": "[5]; vs LPS group", "result": "significantly increase"}, {"measurement": "tail bleeding volume", "setting": "[5]; vs LPS group", "result": "significantly increase"}]}
{"smiles": "CC(C)=CCC[C@](C)(O[C@@H]1O[C@H](CO)[C@@H](O)[C@H](O)[C@H]1O)[C@H]1CC[C@]2(C)[C@@H]1[C@H](O)C[C@@H]1[C@@]3(C)CC[C@H](O)C(C)(C)[C@@H]3CC[C@]12C", "note": "[ginsenoside CK]", "values": [{"measurement": "inhibition of PHD2 enzyme activity", "setting": "PHD2 protein [6]; ginsenoside CK at 0.5 μM, 5 μM, 50 μM", "result": "inhibit the PHD2 enzyme activity in a concentration gradient"}, {"measurement": "Kd", "setting": "PHD2 protein [7]", "result": 18, "unit": "µM"}, {"measurement": "erythrocyte aggregation index", "setting": "[4]", "result": "significantly reduce"}, {"measurement": "erythrocyte packed-cell volume", "setting": "[4]", "result": "significantly reduce"}, {"measurement": "mean platelet volume", "setting": "[4]", "result": "improved"}, {"measurement": "platelet number", "setting": "[4]", "result": "significantly reduce"}, {"measurement": "whole blood viscosity", "setting": "[4]", "result": "improved to a certain extent"}]}
{"smiles": "OC[C@H]1O[C@@H](Oc2cc(O)cc(/C=C/c3ccc(O)cc3)c2)[C@H](O)[C@@H](O)[C@@H]1O", "note": "[polydatin]", "values": [{"measurement": "inhibition of PHD2 enzyme activity", "setting": "PHD2 protein [6]; polydatin at 0.1 μM, 1 μM, 10 μM", "result": "inhibit the PHD2 enzyme activity in a concentration gradient"}, {"measurement": "activated partial thrombin time", "setting": "[8]", "result": "significantly prolong"}, {"measurement": "fibrinogen content in blood", "setting": "[8]", "result": "reduced"}, {"measurement": "prothrombin time", "setting": "[8]", "result": "significantly prolong"}, {"measurement": "thrombin time", "setting": "[8]", "result": "significantly prolong"}, {"measurement": "Kd", "setting": "PHD2 protein [7]", "result": 23.5, "unit": "µM"}]}
